Assay results as given in US12169192B2, “Methods of identifying a hydrocarbon fuel” (Afton Chemical Corporation, priority 2020, dated 2024).

Experiments:
[1] = Partition of marker compound between water and heptane phases; format: physicochemical; details: for Initial Fluorescence Intensity in Water Phase / Fluorescence Intensity in Water Phase After Partition: heptane, excitation 540 nm, emission 590 nm; for Initial Fluorescence Intensity in Water Phase: 10 ppb marker; for Fluorescence Intensity in Water Phase After Partition: not background corrected; for Partition Ratio (Kd): water/heptane, corrected for background
Method: (§1) In this Example, the separation/partition of the marker compound between water and fuel phases was measured. The procedure for this Example included: measure fluorescence of 10 grams of water phase with and without marker compound present to determine background fluorescence. Then, 10 grams of hydrocarbon including 10 ppb of marker compound was added to the water and gently agitated for 1 minute. After mixing, the sample was allowed to completely separate into two phases. Thereafter, the fluorescence of the water phase was re-measured. Since the marker concentration is directly proportional to fluorescence intensity (at 10 ppb and within a range of interest), the Partition Ratio can be calculated from the initial and final tracer fluorescence intensities (corrected for any background fluorescence) from the water phase.
(§2) For this Example, Rhodamine B, Rhodamine 101, and Fluorescein marker compounds were used. For Rhodamine 101 and Rhodamine B measurements, excitation wavelength was 540 nm and emission wavelength was 590 nm. For Fluorescein measurements, excitation wavelength was 470 nm and emission wavelength was 515 nm.

[2] = Partition of marker compound between water and gasoline phases; format: physicochemical; details: for Initial Fluorescence Intensity in Water Phase / Fluorescence Intensity in Water Phase After Partition: gasoline, excitation 540 nm, emission 590 nm; for Initial Fluorescence Intensity in Water Phase: 10 ppb marker; for Fluorescence Intensity in Water Phase After Partition: not background corrected; for Partition Ratio (Kd): water/gasoline, corrected for background
Method: as §1, §2

| Compound | Initial Fluorescence Intensity in Water Phase [1] [arb units] | Fluorescence Intensity in Water Phase After Partition [1] [arb units] | Partition Ratio (Kd) [1] | Initial Fluorescence Intensity in Water Phase [2] [arb units] | Fluorescence Intensity in Water Phase After Partition [2] [arb units] | Partition Ratio (Kd) [2] |
| --- | --- | --- | --- | --- | --- | --- |
| O=C([O-])c1ccccc1C1=c2cc3c4c(c2Oc2c1cc1c5c2CCCN5CCC1)CCC[N+]=4CCC3 [Rhodamine 101] | 73 | 20 | 0.35 | 73.5 | 12.5 | 0.20 |
| CCN(CC)c1ccc2c(-c3ccccc3C(=O)O)c3ccc(=[N+](CC)CC)cc-3oc2c1.[Cl-] [Rhodamine B] | 75 | 21.5 | 0.38 | 71.5 | 13 | 0.21 |
